The text below walks through data of patent US12630548B2, “Azetidine derivatives for the treatment of integrin associated diseases” (The University of Nottingham, priority 2020, dated 2026).

This experiment deals with ανβ6 (Homo sapiens, UniProt P06756+P18564). The experiment is described as follows: Cell adhesion assay, αvβ6 integrin. It counts as cell-based. Particulars: cell adhesion data; read-out: ανβ6 IC50. On the procedure:
The assays were performed as described in the literature (P. A. Procopiou, N. A. Anderson, J. Barrett, T. N. Barrett, M. H. J. Crawford, B. J. Fallon, A. P. Hancock, J. Le, S. Lemma, R. P. Marshall, J. Morrell, J. M. Pritchard, J. E. Rowedder, P. Saklatvala, R. J. Slack, S. L. Sollis, C. J. Suckling, L. R. Thorp, G. Vitulli, et al., J. Med. Chem. 2018, 61, 8417-8443; S. B. Ludbrook, S. T. Barry, C. J. Delves, C. M. T. Horgan, Biochem. J. 2003, 369, 311-318).

As usually defined, the IC50 is the concentration that gives 50% inhibition.

Chain of ανβ6 (P06756 31-889 limits assumed): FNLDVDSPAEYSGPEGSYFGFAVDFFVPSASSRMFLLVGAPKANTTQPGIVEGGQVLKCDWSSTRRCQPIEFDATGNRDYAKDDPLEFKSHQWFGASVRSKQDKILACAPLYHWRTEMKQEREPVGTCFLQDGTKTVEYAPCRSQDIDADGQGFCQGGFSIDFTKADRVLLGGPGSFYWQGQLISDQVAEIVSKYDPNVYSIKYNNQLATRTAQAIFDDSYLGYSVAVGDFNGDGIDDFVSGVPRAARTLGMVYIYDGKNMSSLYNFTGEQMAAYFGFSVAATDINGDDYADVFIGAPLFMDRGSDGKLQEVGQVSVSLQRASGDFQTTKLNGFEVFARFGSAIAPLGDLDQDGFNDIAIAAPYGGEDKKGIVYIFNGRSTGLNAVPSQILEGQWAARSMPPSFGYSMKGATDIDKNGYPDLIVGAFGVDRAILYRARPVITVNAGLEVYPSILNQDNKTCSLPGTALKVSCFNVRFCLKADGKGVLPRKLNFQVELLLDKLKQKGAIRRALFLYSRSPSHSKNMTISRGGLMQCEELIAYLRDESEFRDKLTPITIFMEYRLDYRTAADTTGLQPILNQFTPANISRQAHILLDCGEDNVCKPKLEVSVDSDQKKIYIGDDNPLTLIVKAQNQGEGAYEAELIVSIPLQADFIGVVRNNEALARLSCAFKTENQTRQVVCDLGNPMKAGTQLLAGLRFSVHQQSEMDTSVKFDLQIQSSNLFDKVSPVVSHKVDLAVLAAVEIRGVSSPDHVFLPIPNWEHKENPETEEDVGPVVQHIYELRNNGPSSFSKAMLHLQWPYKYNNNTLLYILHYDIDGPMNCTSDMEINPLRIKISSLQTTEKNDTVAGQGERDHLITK
Chain of ανβ6 (P06756 891-1048 limits assumed): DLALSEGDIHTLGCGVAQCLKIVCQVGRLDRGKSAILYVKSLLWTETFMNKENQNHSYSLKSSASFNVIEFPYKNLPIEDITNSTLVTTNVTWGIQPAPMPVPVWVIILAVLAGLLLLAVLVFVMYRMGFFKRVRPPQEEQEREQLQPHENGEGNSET
Chain of ανβ6 (P18564 22-788): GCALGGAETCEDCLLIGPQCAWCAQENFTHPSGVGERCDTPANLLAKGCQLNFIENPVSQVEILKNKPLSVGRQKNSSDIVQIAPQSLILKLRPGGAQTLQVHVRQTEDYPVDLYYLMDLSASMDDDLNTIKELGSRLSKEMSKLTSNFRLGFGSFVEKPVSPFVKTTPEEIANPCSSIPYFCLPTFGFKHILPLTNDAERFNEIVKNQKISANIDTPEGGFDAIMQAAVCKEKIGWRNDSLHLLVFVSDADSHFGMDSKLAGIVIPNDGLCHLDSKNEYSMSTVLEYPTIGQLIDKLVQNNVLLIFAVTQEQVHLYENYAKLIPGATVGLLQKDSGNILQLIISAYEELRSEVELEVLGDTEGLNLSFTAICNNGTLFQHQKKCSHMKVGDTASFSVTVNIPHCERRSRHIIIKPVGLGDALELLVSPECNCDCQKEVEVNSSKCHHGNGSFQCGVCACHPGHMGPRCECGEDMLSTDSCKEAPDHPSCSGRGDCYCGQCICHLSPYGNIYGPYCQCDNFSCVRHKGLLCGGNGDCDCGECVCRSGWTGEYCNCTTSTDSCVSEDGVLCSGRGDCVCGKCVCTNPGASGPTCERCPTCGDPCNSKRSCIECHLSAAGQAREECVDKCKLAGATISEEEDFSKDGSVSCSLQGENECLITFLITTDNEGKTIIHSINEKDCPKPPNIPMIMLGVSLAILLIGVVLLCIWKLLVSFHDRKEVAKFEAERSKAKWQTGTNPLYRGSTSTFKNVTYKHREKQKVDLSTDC

Consider `Cc1ccc(S(=O)(=O)N2CC(C(=O)NC(CNC(=O)CCCCc3ccc4c(n3)NCCC4)C(=O)O)C2)cc1` (racemic) [Example 1, 3-(5-(5,6,7,8-tetrahydro-1,8-naphthyridin-2-yl)pentanamido)-2-(1-(4-methylbenzenesulfonyl)azetidine-3-carboxamido)propanoic acid], for which the IC50 is below 250 nM.

As to `O=C(CCCCc1ccc2c(n1)NCCC2)NCC(NC(=O)C1CN(S(=O)(=O)c2ccc(F)cc2)C1)C(=O)O` (racemic) [Example 2, 2-(1-(4-fluorobenzenesulfonyl)azetidine-3-carboxamido)-3-(5-(5,6,7,8-tetrahydro-1,8-naphthyridin-2-yl)pentanamido)propanoic acid], the IC50 is below 250 nM.

In the case of `Cc1ccccc1S(=O)(=O)N1CC(C(=O)NC(CNC(=O)CCCCc2ccc3c(n2)NCCC3)C(=O)O)C1` (racemic) [Example 3, 3-(5-(5,6,7,8-tetrahydro-1,8-naphthyridin-2-yl)pentanamido)-2-(1-(2-methylbenzenesulfonyl)azetidine-3-carboxamido)propanoic acid], the IC50 was below 250 nM.

As to `Cc1cccc(S(=O)(=O)N2CC(C(=O)NC(CNC(=O)CCCCc3ccc4c(n3)NCCC4)C(=O)O)C2)c1` (racemic) [Example 4, 3-(5-(5,6,7,8-tetrahydro-1,8-naphthyridin-2-yl)pentanamido)-2-(1-(3-methylbenzenesulfonyl)azetidine-3-carboxamido)propanoic acid], the half-inhibitory concentration (IC50) is below 250 nM.

For `O=C(CCCCc1ccc2c(n1)NCCC2)NCC(NC(=O)C1CN(S(=O)(=O)c2cccc(F)c2)C1)C(=O)O` (racemic) [Example 5, 2-(1-(3-fluorobenzenesulfonyl)azetidine-3-carboxamido)-3-(5-(5,6,7,8-tetrahydro-1,8-naphthyridin-2-yl)pentanamido)propanoic acid], the IC50 is below 250 nM.

On to `O=C(CCCCc1ccc2c(n1)NCCC2)NCC(NC(=O)C1CN(S(=O)(=O)c2cccc(C(F)(F)F)c2)C1)C(=O)O` (racemic) [Example 7, 3-(5-(5,6,7,8-tetrahydro-1,8-naphthyridin-2-yl)pentanamido)-2-(1-(3-(trifluoromethyl)benzenesulfonyl)azetidine-3-carboxamido)propanoic acid], for which the IC50 is below 250 nM.

For `O=C(CCCCc1ccc2c(n1)NCCC2)NCC(NC(=O)C1CN(S(=O)(=O)c2cccc(OC(F)(F)F)c2)C1)C(=O)O` (racemic) [Example 8, 3-(5-(5,6,7,8-tetrahydro-1,8-naphthyridin-2-yl)pentanamido)-2-(1-(3-(trifluoromethoxy)benzenesulfonyl)azetidine-3-carboxamido)propanoic acid], the half-maximal inhibitory concentration (IC50) is below 250 nM.

With `O=C(CCCCc1ccc2c(n1)NCCC2)NCC(NC(=O)C1CN(S(=O)(=O)c2ccccc2)C1)C(=O)O` (racemic) [Example 9, 2-(1-(phenylsulfonyl)azetidine-3-carboxamido)-3-(5-(5,6,7,8-tetrahydro-1,8-naphthyridin-2-yl)pentanamido)propanoic acid], the IC50 is below 250 nM.

With `O=C(CCCCc1ccc2c(n1)NCCC2)NCC(NC(=O)C1CN(S(=O)(=O)c2cc(Cl)cc(Cl)c2)C1)C(=O)O` (racemic) [Example 10, 2-(1-(3,5-dichlorobenzenesulfonyl)azetidine-3-carboxamido)-3-(5-(5,6,7,8-tetrahydro-1,8-naphthyridin-2-yl)pentanamido)propanoic acid], the half-maximal inhibitory concentration (IC50) is below 250 nM.

As for `Cc1cc(C)cc(S(=O)(=O)N2CC(C(=O)NC(CNC(=O)CCCCc3ccc4c(n3)NCCC4)C(=O)O)C2)c1` (racemic) [Example 11, 2-(1-(3,5-dimethylbenzenesulfonyl)azetidine-3-carboxamido)-3-(5-(5,6,7,8-tetrahydro-1,8-naphthyridin-2-yl)pentanamido)propanoic acid], the IC50 is below 250 nM.

As for `CS(=O)(=O)c1cccc(S(=O)(=O)N2CC(C(=O)NC(CNC(=O)CCCCc3ccc4c(n3)NCCC4)C(=O)O)C2)c1` (racemic) [Example 12], the IC50 is below 250 nM.

With `Cc1cc(Cl)cc(S(=O)(=O)N2CC(C(=O)NC(CNC(=O)CCCCc3ccc4c(n3)NCCC4)C(=O)O)C2)c1` (racemic) [Example 13, 2-(1-(3-chloro-5-methylbenzenesulfonyl)azetidine-3-carboxamido)-3-(5-(5,6,7,8-tetrahydro-1,8-naphthyridin-2-yl)pentanamido)propanoic acid], the IC50 is below 250 nM.

As for `CCc1cccc(S(=O)(=O)N2CC(C(=O)NC(CNC(=O)CCCCc3ccc4c(n3)NCCC4)C(=O)O)C2)c1` (racemic) [Example 14, 2-(1-(3-ethylbenzenesulfonyl)azetidine-3-carboxamido)-3-(5-(5,6,7,8-tetrahydro-1,8-naphthyridin-2-yl)pentanamido)propanoic acid], the half-maximal inhibitory concentration (IC50) was below 250 nM.

For the compound `Cc1cccc(S(=O)(=O)N2CC(C)(C(=O)NC(CNC(=O)CCCCc3ccc4c(n3)NCCC4)C(=O)O)C2)c1` (racemic) [Example 15, 2-(3-methyl-1-(3-methylbenzenesulfonyl)azetidine-3-carboxamido)-3-(5-(5,6,7,8-tetrahydro-1,8-naphthyridin-2-yl)pentanamido)propanoic acid], the half-inhibitory concentration (IC50) is below 250 nM.

With `CCC1(C(=O)NC(CNC(=O)CCCCc2ccc3c(n2)NCCC3)C(=O)O)CN(S(=O)(=O)c2cccc(C)c2)C1` (racemic) [Example 16, 2-(3-ethyl-1-(3-methylbenzenesulfonyl)azetidine-3-carboxamido)-3-(5-(5,6,7,8-tetrahydro-1,8-naphthyridin-2-yl)pentanamido)propanoic acid], the IC50 is below 250 nM.

With `Cc1cccc(S(=O)(=O)N2CC(F)(C(=O)NC(CNC(=O)CCCCc3ccc4c(n3)NCCC4)C(=O)O)C2)c1` (racemic) [Example 17, 2-(3-fluoro-1-(3-methylbenzenesulfonyl)azetidine-3-carboxamido)-3-(5-(5,6,7,8-tetrahydro-1,8-naphthyridin-2-yl)pentanamido)propanoic acid], the IC50 is below 250 nM.

On to `Cn1cnc(S(=O)(=O)N2CC(C(=O)NC(CNC(=O)CCCCc3ccc4c(n3)NCCC4)C(=O)O)C2)c1` (racemic) [Example 18, 2-(1-((1-methyl-1H-imidazol-4-yl)sulfonyl)azetidine-3-carboxamido)-3-(5-(5,6,7,8-tetrahydro-1,8-naphthyridin-2-yl)pentanamido) propanoic acid], for which the IC50 is below 250 nM.

On to `Cn1cc(S(=O)(=O)N2CC(C(=O)NC(CNC(=O)CCCCc3ccc4c(n3)NCCC4)C(=O)O)C2)cn1` (racemic) [Example 19, 2-(1-((1-methyl-1H-pyrazol-4-yl)sulfonyl)azetidine-3-carboxamido)-3-(5-(5,6,7,8-tetrahydro-1,8-naphthyridin-2-yl)pentanamido)propanoic acid], for which the IC50 is below 250 nM.

Turning to `O=C(CCCCc1ccc2c(n1)NCCC2)NCC(NC(=O)C1CN(S(=O)(=O)c2ccc(Cl)s2)C1)C(=O)O` (racemic) [Example 20, 2-(1-((5-chlorothiophen-2-yl)sulfonyl)azetidine-3-carboxamido)-3-(5-(5,6,7,8-tetrahydro-1,8-naphthyridin-2-yl)pentanamido)propanoic acid], the IC50 was below 250 nM.

For `O=C(CCCCc1ccc2c(n1)NCCC2)NCC(NC(=O)C1CN(S(=O)(=O)c2cccnc2)C1)C(=O)O` (racemic) [Example 21, 2-(1-(pyridin-3-ylsulfonyl)azetidine-3-carboxamido)-3-(5-(5,6,7,8-tetrahydro-1,8-naphthyridin-2-yl)pentanamido)propanoic acid], the 50% inhibitory concentration (IC50) was below 250 nM.

In the case of `Cc1nc(S(=O)(=O)N2CC(C(=O)NC(CNC(=O)CCCCc3ccc4c(n3)NCCC4)C(=O)O)C2)cn1C` (racemic) [Example 22, 2-(1-((1,2-dimethyl-1H-imidazol-4-yl)sulfonyl)azetidine-3-carboxamido)-3-(5-(5,6,7,8-tetrahydro-1,8-naphthyridin-2-yl)pentanamido)propanoic acid], the IC50 is below 250 nM.

As to `O=C(CCCCc1ccc2c(n1)NCCC2)NC[C@H](NC(=O)C1CN(S(=O)(=O)c2cc(Cl)cc(Cl)c2)C1)C(=O)O` [Example 23, (S)-2-(1-(3,5-Dichlorobenzenesulfonyl)azetidine-3-carboxamido)-3-(5-(5,6,7,8-tetrahydro-1,8-naphthyridin-2-yl)pentanamido)propanoic acid], the half-inhibitory concentration (IC50) is below 250 nM.

As for `Cc1cc(C)cc(S(=O)(=O)N2CC(C(=O)N[C@@H](CNC(=O)CCCCc3ccc4c(n3)NCCC4)C(=O)O)C2)c1` [Example 24, (S)-2-(1-(3,5-Dimethylbenzenesulfonyl)azetidine-3-carboxamido)-3-(5-(5,6,7,8-tetrahydro-1,8-naphthyridin-2-yl)pentanamido)propanoic acid], the concentration for half-maximal inhibition (IC50) is below 250 nM.

For `Cc1cc(Cl)cc(S(=O)(=O)N2CC(C(=O)N[C@@H](CNC(=O)CCCCc3ccc4c(n3)NCCC4)C(=O)O)C2)c1` [Example 25, (S)-2-(1-(3-Chloro-5-methylbenzenesulfonyl)azetidine-3-carboxamido)-3-(5-(5,6,7,8-tetrahydro-1,8-naphthyridin-2-yl)pentanamido)propanoic acid], the concentration for half-maximal inhibition (IC50) is below 250 nM.

Turning to `CCc1cccc(S(=O)(=O)N2CC(C(=O)N[C@@H](CNC(=O)CCCCc3ccc4c(n3)NCCC4)C(=O)O)C2)c1` [Example 26, (S)-2-(1-(3-Ethylbenzenesulfonyl)azetidine-3-carboxamido)-3-(5-(5,6,7,8-tetrahydro-1,8-naphthyridin-2-yl)pentanamido)propanoic acid], the IC50 is below 250 nM.

On to `O=C(CCCCc1ccc2c(n1)NCCC2)NC[C@H](NC(=O)C1CN(S(=O)(=O)c2cccc(Cl)c2)C1)C(=O)O` [Example 27, (S)-2-(1-(3-Chlorobenzenesulfonyl)azetidine-3-carboxamido)-3-(5-(5,6,7,8-tetrahydro-1,8-naphthyridin-2-yl)pentanamido)propanoic acid], for which the concentration for half-maximal inhibition (IC50) is below 250 nM.
